Reference: patent publication US20050208496A1, “Methods of testing for bronchial asthma or chronic obstructive pulmonary disease” (Genox Research, Inc., priority 2002, published 2005)
Where two headings read alike, the source gives them in different places.

Tested on: respiratory epithelial cells

Substance: IL-13: human IL-13 (Peprotech, Inc.) added to the medium at 50 ng/mL to stimulate respiratory epithelial cells
- pendrin gene expression level, factor of increase in response to IL-13 stimulation (AI method, day 3 and day 7, both Lots 1 and 2): ten or more
- AKR1C1 (32805_at) expression change upon IL-13 stimulation (HG-U95A, lot 1, Day 3, AI): −2.7
- ALDH3B2 (37956_at) expression change upon IL-13 stimulation (HG-U95A, lot 1, Day 3, AI): −7.4
- AP1G1 (35275_at) expression change upon IL-13 stimulation (HG-U95A, lot 1, Day 3, AI): −3.6
- CA12 (36454_at) expression change upon IL-13 stimulation (HG-U95A, lot 1, Day 3, AI): −4
- CHL1 (34193_at) expression change upon IL-13 stimulation (HG-U95A, lot 1, Day 3, AI): −2.5
- CMAH (39317_at) expression change upon IL-13 stimulation (HG-U95A, lot 1, Day 3, AI): −2.2
- E48 (36284_at) expression change upon IL-13 stimulation (HG-U95A, lot 1, Day 3, AI): −10.3
- EPHX1 (38790_at) expression change upon IL-13 stimulation (HG-U95A, lot 1, Day 3, AI): −3
- FMO2.3 (34935_at) expression change upon IL-13 stimulation (HG-U95A, lot 1, Day 3, AI): −2.2
- GLUL (40522_at) expression change upon IL-13 stimulation (HG-U95A, lot 1, Day 3, AI): −3.8
- GSTA4 (40508_at) expression change upon IL-13 stimulation (HG-U95A, lot 1, Day 3, AI): −8
- HGNC, keratinocyte transglutaminase gene (35947_at) expression change upon IL-13 stimulation (HG-U95A, lot 1, Day 3, AI): −2
- KIAA0843 (39597_at) expression change upon IL-13 stimulation (HG-U95A, lot 1, Day 3, AI): −2.2
- LGALS1 (33412_at) expression change upon IL-13 stimulation (HG-U95A, lot 1, Day 3, AI): −2
- PYGL (37215_at) expression change upon IL-13 stimulation (HG-U95A, lot 1, Day 3, AI): −2.2
- SCYD1 (823_at) expression change upon IL-13 stimulation (HG-U95A, lot 1, Day 3, AI): −2.2
- SDC1 (38127_at) expression change upon IL-13 stimulation (HG-U95A, lot 1, Day 3, AI): −2.2
- TGFBI (1385_at) expression change upon IL-13 stimulation (HG-U95A, lot 1, Day 3, AI): −3.8
- ADH1A (34637_f_at) expression change upon IL-13 stimulation (HG-U95A, lot 1, Day 3, IMM): −3
- AP1G1 (35275_at) expression change upon IL-13 stimulation (HG-U95A, lot 1, Day 3, IMM): −2.8
- CA12 (36454_at) expression change upon IL-13 stimulation (HG-U95A, lot 1, Day 3, IMM): −3.5
- CLDN10 (39579_at) expression change upon IL-13 stimulation (HG-U95A, lot 1, Day 3, IMM): −2.3
- GLUL (40522_at) expression change upon IL-13 stimulation (HG-U95A, lot 1, Day 3, IMM): −2.9
- GPX3 (770_at) expression change upon IL-13 stimulation (HG-U95A, lot 1, Day 3, IMM): −3.2
- KIAA0843 (39597_at) expression change upon IL-13 stimulation (HG-U95A, lot 1, Day 3, IMM): −2.3
- TGFBI (1385_at) expression change upon IL-13 stimulation (HG-U95A, lot 1, Day 3, IMM): −2.2
- ADH1A (34637_f_at) expression change upon IL-13 stimulation (HG-U95A, lot 1, Day 7, AI): −6.1
- ADH1C (36247_f_at) expression change upon IL-13 stimulation (HG-U95A, lot 1, Day 7, AI): −4.1
- AKR1C1 (32805_at) expression change upon IL-13 stimulation (HG-U95A, lot 1, Day 7, AI): −3.2
- ALDH3B2 (37956_at) expression change upon IL-13 stimulation (HG-U95A, lot 1, Day 7, AI): −6.8
- AP1G1 (35275_at) expression change upon IL-13 stimulation (HG-U95A, lot 1, Day 7, AI): −3.9
- ATP10B (37415_at) expression change upon IL-13 stimulation (HG-U95A, lot 1, Day 7, AI): −3.2
- BLMH (37700_at) expression change upon IL-13 stimulation (HG-U95A, lot 1, Day 7, AI): −2.1
- CA12 (36454_at) expression change upon IL-13 stimulation (HG-U95A, lot 1, Day 7, AI): −6.3
- CLDN10 (39579_at) expression change upon IL-13 stimulation (HG-U95A, lot 1, Day 7, AI): −4.6
- CMAH (39317_at) expression change upon IL-13 stimulation (HG-U95A, lot 1, Day 7, AI): −4.4
- CP (39008_at) expression change upon IL-13 stimulation (HG-U95A, lot 1, Day 7, AI): −3.6
- CRYM (38285_at) expression change upon IL-13 stimulation (HG-U95A, lot 1, Day 7, AI): −4.2
- CSPG2 (38112_g_at) expression change upon IL-13 stimulation (HG-U95A, lot 1, Day 7, AI): −2.1
- DHCR24 (36658_at) expression change upon IL-13 stimulation (HG-U95A, lot 1, Day 7, AI): −2.3
- DSG3 (33693_at) expression change upon IL-13 stimulation (HG-U95A, lot 1, Day 7, AI): −3.6
- E48 (36284_at) expression change upon IL-13 stimulation (HG-U95A, lot 1, Day 7, AI): −7.2
- EPHX1 (38790_at) expression change upon IL-13 stimulation (HG-U95A, lot 1, Day 7, AI): −3
- FACL2 (40082_at) expression change upon IL-13 stimulation (HG-U95A, lot 1, Day 7, AI): −2.7
- FMO3 (40665_at) expression change upon IL-13 stimulation (HG-U95A, lot 1, Day 7, AI): −2.1
- GLUL (40522_at) expression change upon IL-13 stimulation (HG-U95A, lot 1, Day 7, AI): −3
- GPX3 (770_at) expression change upon IL-13 stimulation (HG-U95A, lot 1, Day 7, AI): −6.5
- GSTA4 (40508_at) expression change upon IL-13 stimulation (HG-U95A, lot 1, Day 7, AI): −3.8
- HGNC, keratinocyte transglutaminase gene (35947_at) expression change upon IL-13 stimulation (HG-U95A, lot 1, Day 7, AI): −3.2
- KIAA0843 (39597_at) expression change upon IL-13 stimulation (HG-U95A, lot 1, Day 7, AI): −2.6
- KIAA0878 (32215_1_at) expression change upon IL-13 stimulation (HG-U95A, lot 1, Day 7, AI): −3.4
- KIAA1055 (39400_at) expression change upon IL-13 stimulation (HG-U95A, lot 1, Day 7, AI): −5.3
- LCE (40943_at) expression change upon IL-13 stimulation (HG-U95A, lot 1, Day 7, AI): −2
- LGALS1 (33412_at) expression change upon IL-13 stimulation (HG-U95A, lot 1, Day 7, AI): −6.8
- PYGL (37215_at) expression change upon IL-13 stimulation (HG-U95A, lot 1, Day 7, AI): −3.2
- SCYD1 (823_at) expression change upon IL-13 stimulation (HG-U95A, lot 1, Day 7, AI): −8.5
- TGFBI (1385_at) expression change upon IL-13 stimulation (HG-U95A, lot 1, Day 7, AI): −5.3
- TNFAIP2 (38631_at) expression change upon IL-13 stimulation (HG-U95A, lot 1, Day 7, AI): −4.4
- AKR1C1 (32805_at) expression change upon IL-13 stimulation (HG-U95A, lot 1, Day 7, IMM): −3.1
- AP1G1 (35275_at) expression change upon IL-13 stimulation (HG-U95A, lot 1, Day 7, IMM): −3.7
- CA12 (36454_at) expression change upon IL-13 stimulation (HG-U95A, lot 1, Day 7, IMM): −4
- CHL1 (34193_at) expression change upon IL-13 stimulation (HG-U95A, lot 1, Day 7, IMM): 2.1
- CP (39008_at) expression change upon IL-13 stimulation (HG-U95A, lot 1, Day 7, IMM): −2.6
- FMO2.3 (34935_at) expression change upon IL-13 stimulation (HG-U95A, lot 1, Day 7, IMM): −2.4
- GPX3 (770_at) expression change upon IL-13 stimulation (HG-U95A, lot 1, Day 7, IMM): −6
- HGNC, keratinocyte transglutaminase gene (35947_at) expression change upon IL-13 stimulation (HG-U95A, lot 1, Day 7, IMM): −3.7
- KIAA0878 (32215_1_at) expression change upon IL-13 stimulation (HG-U95A, lot 1, Day 7, IMM): −2.3
- PYGL (37215_at) expression change upon IL-13 stimulation (HG-U95A, lot 1, Day 7, IMM): −2.7
- TGFBI (1385_at) expression change upon IL-13 stimulation (HG-U95A, lot 1, Day 7, IMM): −3
- ADH1C (36247_f_at) expression change upon IL-13 stimulation (HG-U95A, lot 2, Day 3, AI): −6.1
- AKR1C1 (32805_at) expression change upon IL-13 stimulation (HG-U95A, lot 2, Day 3, AI): −2.4
- ALDH3B2 (37956_at) expression change upon IL-13 stimulation (HG-U95A, lot 2, Day 3, AI): −6.9
- AP1G1 (35275_at) expression change upon IL-13 stimulation (HG-U95A, lot 2, Day 3, AI): −2.8
- CA12 (36454_at) expression change upon IL-13 stimulation (HG-U95A, lot 2, Day 3, AI): −6.5
- CHL1 (34193_at) expression change upon IL-13 stimulation (HG-U95A, lot 2, Day 3, AI): −4.3
- CLDN10 (39579_at) expression change upon IL-13 stimulation (HG-U95A, lot 2, Day 3, AI): −5.4
- CMAH (39317_at) expression change upon IL-13 stimulation (HG-U95A, lot 2, Day 3, AI): −7.4
- CP (39008_at) expression change upon IL-13 stimulation (HG-U95A, lot 2, Day 3, AI): −3.9
- DHCR24 (36658_at) expression change upon IL-13 stimulation (HG-U95A, lot 2, Day 3, AI): −2.1
- E48 (36284_at) expression change upon IL-13 stimulation (HG-U95A, lot 2, Day 3, AI): −3.8
- EPHX1 (38790_at) expression change upon IL-13 stimulation (HG-U95A, lot 2, Day 3, AI): −3
- FMO2.3 (34935_at) expression change upon IL-13 stimulation (HG-U95A, lot 2, Day 3, AI): −3.7
- FMO3 (40665_at) expression change upon IL-13 stimulation (HG-U95A, lot 2, Day 3, AI): −2.3
- GLUL (40522_at) expression change upon IL-13 stimulation (HG-U95A, lot 2, Day 3, AI): −3.5
- GPX3 (770_at) expression change upon IL-13 stimulation (HG-U95A, lot 2, Day 3, AI): −12.2
- GSTA4 (40508_at) expression change upon IL-13 stimulation (HG-U95A, lot 2, Day 3, AI): −2.8
- HGNC, keratinocyte transglutaminase gene (35947_at) expression change upon IL-13 stimulation (HG-U95A, lot 2, Day 3, AI): −2.7
- KIAA0843 (39597_at) expression change upon IL-13 stimulation (HG-U95A, lot 2, Day 3, AI): −2.1
- KIAA0878 (32215_1_at) expression change upon IL-13 stimulation (HG-U95A, lot 2, Day 3, AI): −2.4
- LGALS1 (33412_at) expression change upon IL-13 stimulation (HG-U95A, lot 2, Day 3, AI): −2.6
- PYGL (37215_at) expression change upon IL-13 stimulation (HG-U95A, lot 2, Day 3, AI): −2.2
- SCYD1 (823_at) expression change upon IL-13 stimulation (HG-U95A, lot 2, Day 3, AI): −2.1
- TGFBI (1385_at) expression change upon IL-13 stimulation (HG-U95A, lot 2, Day 3, AI): −3.1
- TNFAIP2 (38631_at) expression change upon IL-13 stimulation (HG-U95A, lot 2, Day 3, AI): −2.4
- ADH1A (34637_f_at) expression change upon IL-13 stimulation (HG-U95A, lot 2, Day 7, AI): −20.5
- ADH1C (36247_f_at) expression change upon IL-13 stimulation (HG-U95A, lot 2, Day 7, AI): −14.2
- ALDH3B2 (37956_at) expression change upon IL-13 stimulation (HG-U95A, lot 2, Day 7, AI): −27.6
- AP1G1 (35275_at) expression change upon IL-13 stimulation (HG-U95A, lot 2, Day 7, AI): −2.6
- ATP10B (37415_at) expression change upon IL-13 stimulation (HG-U95A, lot 2, Day 7, AI): −3
- BLMH (37700_at) expression change upon IL-13 stimulation (HG-U95A, lot 2, Day 7, AI): −2.5
- CA12 (36454_at) expression change upon IL-13 stimulation (HG-U95A, lot 2, Day 7, AI): −3
- CHL1 (34193_at) expression change upon IL-13 stimulation (HG-U95A, lot 2, Day 7, AI): −7.3
- CLDN10 (39579_at) expression change upon IL-13 stimulation (HG-U95A, lot 2, Day 7, AI): −5.4
- CMAH (39317_at) expression change upon IL-13 stimulation (HG-U95A, lot 2, Day 7, AI): −14.4
- CP (39008_at) expression change upon IL-13 stimulation (HG-U95A, lot 2, Day 7, AI): −6.2
